In ChEMBL document CHEMBL3714719, “Regulating agent of GPR34 receptor function” (2010) one finds IC50 data, which are given here for 29 molecules.

Molecules are shown by their SMILES. Bounds are passed on as bounds.

As usually defined, the IC50 is the point on the concentration scale where inhibition reaches its midpoint.

The target in the test is Probable G-protein coupled receptor 34 (Homo sapiens, UniProt Q9UPC5). Nature of the test: Antagonist activity against human lung GPR34 expressed in CHO cells co-expressing Galpha116 assessed as inhibition of lysophosphatidyl serine-induced increase in intracellular calcium level pre-incubated before lysophosphatidyl serine addition and measured after 180 secs by Fluo 3-AM dye based fluorescent assay. Format: functional, cell-based.
Probable G-protein coupled receptor 34, sequence (Q9UPC5 whole entry): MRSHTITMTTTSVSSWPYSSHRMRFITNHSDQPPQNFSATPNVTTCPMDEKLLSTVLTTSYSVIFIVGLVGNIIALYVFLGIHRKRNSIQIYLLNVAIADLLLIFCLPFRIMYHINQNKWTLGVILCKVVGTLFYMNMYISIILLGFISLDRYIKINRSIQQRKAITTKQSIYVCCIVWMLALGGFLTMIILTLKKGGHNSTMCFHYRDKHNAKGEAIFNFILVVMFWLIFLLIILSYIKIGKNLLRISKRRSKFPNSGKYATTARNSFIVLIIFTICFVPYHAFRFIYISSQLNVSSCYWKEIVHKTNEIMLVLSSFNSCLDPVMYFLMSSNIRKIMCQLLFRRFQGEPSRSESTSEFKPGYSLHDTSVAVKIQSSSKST
Consider `O=C(Cc1ccc(Oc2ccccc2)cc1)NC1(C(=O)O)Cc2ccc(-c3ccc(Cl)cc3)cc2C1` (centres undefined), for which the IC50 was not above 1 µM.

Take `O=C(O)C1(NS(=O)(=O)Cc2ccc(F)cc2)Cc2ccc(-c3ccc(Cl)cc3)cc2C1` (centres undefined): the IC50 is not above 1 µM.

As to `O=C(Cc1ccc(Oc2nc3ccccc3s2)cc1)NC1(C(=O)O)Cc2ccc(-c3ccc(Cl)cc3)cc2C1` (centres undefined), the IC50 was not above 1 µM.

As for `Cc1ccc(COc2ccc(CC(NC(=O)c3cc4ccc(-c5ccc(Cl)cc5)cc4o3)C(=O)O)cc2)cc1` (centres undefined), the IC50 was not above 1 µM.

With `O=C(O)CN(Cc1ccc(OCc2ccc(F)cc2)cc1)C(=O)c1cn2cc(-c3ccc(Cl)cc3)ccc2n1`, the IC50 was not above 1 µM.

`O=C(Cc1ccc(OCc2ccc(F)cc2)cc1)NC1(C(=O)O)Cc2ccc(-c3ccccc3Cl)cc2C1` (centres undefined): the IC50 was not above 1 µM.

On to `O=C(NC(Cc1ccc(OCc2ccccc2F)cc1)C(=O)O)c1cn2cc(-c3ccc(Cl)cc3)ccc2n1` (centres undefined), for which the IC50 was not above 1 µM.

`Cc1c(C(=O)N[C@@H](Cc2ccc(OCc3ccoc3)cc2)C(=O)O)oc2cc(-c3ccc(Cl)cc3)ccc12`: the IC50 was not above 1 µM.

On to `O=C(NC(Cc1ccc(OCc2ccc(F)cc2)cc1)C(=O)O)c1nc2cc(-c3ccc(Cl)cc3)ccc2[nH]1` (centres undefined), for which the IC50 is not above 1 µM.

For `O=C(NC(Cc1ccc(OCc2cccc(F)c2)cc1)C(=O)O)c1cn2cc(-c3ccc(Cl)cc3)ccc2n1` (centres undefined), the IC50 is not above 1 µM.

As to `O=C(NC(Cc1ccc(OCc2ccc(F)cc2)cc1)C(=O)O)c1cn2ccc(C#Cc3ccccc3)cc2n1` (centres undefined), the IC50 was not above 1 µM.

Consider `Nc1ccccc1COc1ccc(CC(=O)NC2(C(=O)O)Cc3ccc(-c4ccc(Cl)cc4)cc3C2)cc1` (centres undefined), for which the IC50 was not above 1 µM.

As to `O=C(Cc1ccc(OC2Cc3ccccc3C2)cc1)NC1(C(=O)O)Cc2ccc(-c3ccc(Cl)cc3)cc2C1` (centres undefined), the IC50 is not above 1 µM.

Regarding `O=C(N[C@@H](Cc1ccc(OCc2ccsc2)cc1)C(=O)O)c1cn2cc(-c3ccc(Cl)cc3)ccc2n1`, the IC50 was not above 1 µM.

As for `O=C(NC(Cc1ccc(OCc2ccccc2)cc1)c1nnn[nH]1)c1cn2nc(-c3ccc(Cl)cc3)ccc2n1` (centres undefined), the IC50 was not above 1 µM.

In the case of `Nc1c(C(=O)NC(Cc2ccc(OCc3ccccc3)cc2)C(=O)O)oc2ccc(-c3ccc(Cl)cc3)cc12` (centres undefined), the IC50 was not above 1 µM.

For the molecule `O=C(NC(Cc1ccc(OCc2ccccc2)cc1)c1nnn[nH]1)c1cn2cc(-c3ccc(Cl)cc3)ccc2n1` (centres undefined), the IC50 is not above 1 µM.

Regarding `O=C(Cc1ccc(OCc2ccc(F)cc2)cc1)NC1(C(=O)O)Cc2ccc(-c3ccc(Cl)s3)cc2C1` (centres undefined), the half-maximal inhibitory concentration (IC50) is not above 1 µM.

Take `O=C(NC(Cc1ccc(OCc2ccc(F)cc2)cc1)C(=O)O)c1cn2cc(-c3ccc(Cl)cc3)ccc2n1` (centres undefined): the IC50 is not above 1 µM.

With `Cc1c(C(=O)N[C@@H](Cc2ccc(OCc3ccsc3)cc2)C(=O)O)oc2cc(-c3ccc(Cl)cc3)ccc12`, the IC50 was not above 1 µM.

On to `Cc1c(C(=O)N[C@H](C(=O)O)c2ccc(OCc3ccccc3)cc2)oc2cc(-c3ccc(Cl)cc3)ccc12`, for which the IC50 is not above 1 µM.

On to `Nc1cccc(COc2ccc(CC(=O)NC3(C(=O)O)Cc4ccc(-c5ccc(Cl)cc5)cc4C3)cc2)c1` (centres undefined), for which the IC50 is not above 1 µM.

Consider `O=C(Cc1ccc(OCc2ccsc2)cc1)NC1(C(=O)O)Cc2ccc(-c3ccc(Cl)cc3)cc2C1` (centres undefined), for which the IC50 was not above 1 µM.

Regarding `Cc1c(C(=O)N[C@@H](Cc2ccc(OCc3ccccc3)cc2)C(=O)O)oc2cc(-c3ccc(Cl)cc3)ccc12`, the IC50 was not above 1 µM.

On to `O=C(N[C@@H](Cc1ccc(OCc2ccccc2)cc1)C(=O)O)c1cn2ccc(-c3ccc(Cl)cc3)cc2n1`, for which the IC50 is not above 1 µM.

As to `O=C(Cc1ccc(OCc2ccc(F)cc2)cc1)NC1(C(=O)O)Cc2ccc(-c3cccc(Cl)c3)cc2C1` (centres undefined), the IC50 was not above 1 µM.

As for `O=C(Cc1ccc(OCc2ccc(F)cc2)cc1)NC1(C(=O)O)Cc2ccc(-c3ccc(Cl)cc3)cc2C1` (centres undefined), the IC50 was not above 1 µM.

As for `O=C(Cc1ccc(OCc2ccccc2)cc1)NC1(C(=O)O)Cc2ccc(-c3ccc(Cl)cc3)cc2C1` (centres undefined), the IC50 was not above 1 µM.

`O=C(NC(Cc1ccc(OCc2ccccc2)cc1)C(=O)O)c1cn2cc(CCc3ccccc3)ccc2n1` (centres undefined): the IC50 was not above 1 µM.
